Reference: PubChem BioAssay AID434954 (Broad Institute, 2010)
Active and inactive are the calls of the source.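 How the source made its calls: active means IC50 at or below a set limit above the highest tested dose; inconclusive means flat curve with 30 to 70% inhibition, or poor fit; inactive means the rest.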

What follows are compounds tested against Glycogen synthase kinase-3 beta (Homo sapiens) (UniProt P49841) (assay: GSK3beta kinase inhibitor potency, dose response, biochemical, luminescence, cell-free homogeneous, retest (AID 434954)). Settings: recombinant GSK3beta, ADP-Glo luminescence, 60 min.
Sequence of Glycogen synthase kinase-3 beta (Homo sapiens) (P49841 whole entry, looked up): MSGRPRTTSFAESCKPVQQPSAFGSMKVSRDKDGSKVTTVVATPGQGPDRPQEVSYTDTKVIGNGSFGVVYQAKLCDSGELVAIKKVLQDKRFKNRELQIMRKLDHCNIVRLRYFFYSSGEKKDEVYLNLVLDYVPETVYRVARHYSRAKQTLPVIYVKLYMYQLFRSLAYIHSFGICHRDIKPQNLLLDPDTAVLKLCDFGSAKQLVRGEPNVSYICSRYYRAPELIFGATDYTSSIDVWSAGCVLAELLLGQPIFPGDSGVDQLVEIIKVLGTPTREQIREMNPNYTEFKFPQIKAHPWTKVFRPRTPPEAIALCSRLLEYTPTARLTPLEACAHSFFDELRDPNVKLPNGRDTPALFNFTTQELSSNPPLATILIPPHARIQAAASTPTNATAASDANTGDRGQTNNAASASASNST
Cc1cc(-c2[nH]nc3c2C(c2cccc(O)c2)C(C#N)=C(N)O3)c(C)s1 (stereo not drawn) was tested, and the IC50 was 25.4 µM. With Nc1nc(F)nc2c1ncn2[C@@H]1O[C@H](CO)[C@@H](O)[C@@H]1O the IC50 was > 30 µM (inactive). COc1cc(C2C(C#N)=C(C)NC3=C2C(=O)CC(C)(C)C3)ccc1O (stereo not drawn) was tested, and the IC50 was > 30 µM (inactive). In the case of COc1ccc(C2C(C#N)=C(C)NC3=C2C(=O)CC(C)(C)C3)cc1 (stereo not drawn), the IC50 is reported as > 30 µM (inactive). Cc1[nH]nc2c1C(c1ccc(F)cc1)C1=C(CC(C)(C)CC1=O)N2 (stereo not drawn) was tested, and the IC50 was 3.93 µM. Work on COc1cccc(C2C3=C(CC(C)(C)CC3=O)Nc3n[nH]c(C)c32)c1 (stereo not drawn) yielded an IC50 of 0.958 µM. In the case of C/C(=N\O)c1ncc(C(F)(F)F)cc1Cl, the IC50 is reported as > 30 µM (inactive). With O=C(CC1SC(N2CCCCC2)=NC1=O)Nc1cccc(C(F)(F)F)c1 (stereo not drawn) the IC50 was > 30 µM (inactive). CC[n+]1c(/C=C/Nc2ccccc2)sc2ccccc21 was tested, and the IC50 was > 30 µM (inactive). In the case of O=c1[nH]c(=O)n(Cc2ccc(F)cc2)c(O)c1C=NCCN1CCCCC1, the IC50 is reported as > 30 µM (inactive). In the case of COc1ccc(-c2nn(CCC#N)cc2/C=N/O)cc1OC, the IC50 is reported as > 30 µM (inactive). With COc1cccc(C2C3=C(CC(C)(C)CC3=O)Nc3cc4c(cc32)OCO4)c1 (stereo not drawn) the IC50 was > 30 µM (inactive). CCOC(=O)C1=C(C)Nc2ncnn2C1c1cc(OC)ccc1OC (stereo not drawn) was tested, and the IC50 was > 30 µM (inactive). For Nc1ncnc2c1ncn2[C@@H]1O[C@H](CO)[C@@H](O)[C@H]1O, the IC50 was > 30 µM (inactive). With CCOC(=O)C1=C(C)Nc2ncnn2C1c1cc(Br)ccc1F (stereo not drawn) the IC50 was 24 µM. For CCN(CC)CCN1C(=O)C(=O)/C(=C(/O)c2ccc(S(=O)(=O)N3CCOCC3)cc2)C1c1ccccc1 (stereo not drawn), the IC50 was > 30 µM (inactive). O=C(O)c1ccc(N/N=C/c2ccc(-c3cccc(Cl)c3)o2)cc1 was tested, and the IC50 was > 30 µM (inactive). Oc1ccc(/C=N/Nc2ncc(Br)cn2)c(O)c1 showed an IC50 of 12.3 µM. In the case of CCOC(=O)C1=C(C)Nc2ncnn2C1c1c[nH]c2ccccc12 (stereo not drawn), the IC50 is reported as 4.64 µM. In the case of O=C(NCCCN1CCCC1=O)c1c(O)nc2sccn2c1=O, the IC50 is reported as > 30 µM (inactive). COc1ccc(C2C3=C(CC(C)(C)CC3=O)Nc3n[nH]c(C)c32)cc1 (stereo not drawn) gave an IC50 of 28.3 µM. With CCOC(=O)C1=C(C)Nc2ncnn2C1/C=C/c1ccccc1 (stereo not drawn) the IC50 was > 30 µM (inactive). CSc1nc2c(c(=O)[nH]1)C(c1cccs1)C1=C(CCCC1=O)N2 (stereo not drawn) was tested, and the IC50 was > 30 µM (inactive). Compound CC1=C(C(=O)OCc2ccccc2)C(c2cccnc2)n2ncnc2N1 (stereo not drawn) has an IC50 of 28 µM. With CCOC(=O)C1=C(C)Nc2ncnn2C1c1ccc2c(c1)OCO2 (stereo not drawn) the IC50 was > 30 µM (inactive). In the case of O=C1CCCC2=C1C(c1cccs1)n1ncnc1N2 (stereo not drawn), the IC50 is reported as > 30 µM (inactive). Cc1ccc(-c2nn(-c3ccccc3)cc2/C=N/O)cc1 gave an IC50 of 0.565 µM. In the case of COc1cc(/C=N/NC(=O)c2ccc(O)cc2)ccc1Oc1ccc([N+](=O)[O-])cn1, the IC50 is reported as > 30 µM (inactive). For CC1(C)CC(=O)C2=C(C1)Nc1[nH]c(=S)[nH]c(=O)c1C2c1ccccc1 (stereo not drawn), the IC50 was > 30 µM (inactive). With O=C(O)c1cccc(-c2ccc(/C=N/Nc3ccc([N+](=O)[O-])cc3)o2)c1 the IC50 was > 30 µM (inactive). For CCOc1cc(C2Nc3ccccc3NC3=C2C(=O)CC(C)(C)C3)ccc1O (stereo not drawn), the IC50 was > 30 µM (inactive). In the case of CCOC(=O)C1=C(C)Nc2ncnn2C1c1ccccc1F (stereo not drawn), the IC50 is reported as > 30 µM (inactive). O=C1CC(SC(=Nc2ccccc2)Nc2ccccc2)C(=O)N1c1cccc2ccccc12 (stereo not drawn) was tested, and the IC50 was > 30 µM (inactive). With CCCC1=C(C(=O)OCC)C(c2cccs2)n2ncnc2N1 (stereo not drawn) the IC50 was 23.2 µM. Cc1cccc(N=Nc2c(C)c(C#N)c(O)[nH]c2=O)c1 showed an IC50 of 0.775 µM. In the case of Cc1nn(-c2ccccn2)c2c1C(c1ccncc1)C1=C(CC(C)(C)CC1=O)N2 (stereo not drawn), the IC50 is reported as > 30 µM (inactive). With CCOC(=O)C1=C(C)Nc2ncnn2C1c1cccnc1 (stereo not drawn) the IC50 was > 30 µM (inactive). In the case of Nc1ncnc2c1ncn2C1OC(CO)C(O)C1O (stereo not drawn), the IC50 is reported as > 30 µM (inactive). O=C1C(=O)N(c2ccccn2)C(c2ccc(Br)cc2)/C1=C(/O)c1ccc(Br)cc1 (stereo not drawn) was tested, and the IC50 was > 30 µM (inactive). Work on O=[N+]([O-])c1cc(/C=N\O)ccc1Oc1ccc(F)cc1 yielded an IC50 of 23 µM. Oc1[nH]c2ccccc2c1C=Nc1ccc2c(c1)OCO2 gave an IC50 of 11.4 µM. In the case of N#Cc1c(N)nc2c3c(sc(=N)c2c1N)NC(=O)CC3c1ccccc1 (stereo not drawn), the IC50 is reported as > 30 µM (inactive). In the case of COc1cc(/C=N\Nc2ccc([N+](=O)[O-])cc2)ccc1OCC(=O)Nc1ccc(C)c(C)c1, the IC50 is reported as > 30 µM (inactive). In the case of COc1ccc(-c2c(C)n([O-])c(C)c(C)[n+]2=O)cc1, the IC50 is reported as > 30 µM (inactive). In the case of O=C(O)c1ccc(-c2ccc(/C=N/Nc3ccc([N+](=O)[O-])cc3)o2)cc1, the IC50 is reported as > 30 µM (inactive). Work on C(=N\Nc1ncnc2nc[nH]c12)/c1cccs1 yielded an IC50 of 19.7 µM. In the case of COc1ccc(COC(=O)C2=C(C)NC(=O)NC2c2ccc(O)c(OC)c2)cc1 (stereo not drawn), the IC50 is reported as > 30 µM (inactive). For O=c1[nH]c(N/N=C/c2ccccc2)nc2ccccc12, the IC50 was > 30 µM (inactive). COc1cc(-c2[nH]nc3c2C(c2ccco2)C(C#N)=C(N)O3)cc(OC)c1OC (stereo not drawn) was tested, and the IC50 was 8.59 µM. For COc1ccc(C2CC(=O)C3=C(C2)Nc2ncnn2C3c2ccccc2C)cc1 (stereo not drawn), the IC50 was > 30 µM (inactive). Compound Cc1[nH]nc2c1C(c1cccs1)C1=C(CCCC1=O)N2 (stereo not drawn) has an IC50 of 10.6 µM. Work on CN(C)C=NC(=O)/C(C#N)=C1\CCc2ccccc2N1 yielded an IC50 of 20.1 µM. N#CCCn1cc(/C=N/O)c(-c2ccc(-c3ccccc3)cc2)n1 was tested, and the IC50 was > 30 µM (inactive). O=C(O)c1cc(N/N=C/c2ccc(-c3ccc(F)cc3)o2)ccc1Cl was tested, and the IC50 was > 30 µM (inactive). With CCOc1ccc(/C=N/Nc2ccccn2)cc1OC the IC50 was > 30 µM (inactive). Cc1ccc(C2C3=C(CC(C)(C)CC3=O)Nc3[nH]c(=S)[nH]c(=O)c32)cc1 (stereo not drawn) was tested, and the IC50 was > 30 µM (inactive). With Cc1ccsc1/C=N/Nc1ncnc2nc[nH]c12 the IC50 was 9 µM. For Cc1c(C#N)c(O)[nH]c(=O)c1N=Nc1ccc(S(N)(=O)=O)cc1, the IC50 was 0.917 µM. With CC1=C(C(=O)N2CCCCC2)C(c2cccs2)C2=C(CCCC2=O)N1 (stereo not drawn) the IC50 was > 30 µM (inactive). COc1cccc(C2C(C(=O)OCc3ccccc3)=C(C)Nc3ncnn32)c1OC (stereo not drawn) showed an IC50 of 3.82 µM. With CC(C)Sc1nc2c(c(=O)[nH]1)C(c1cccs1)C1=C(CC(C)(C)CC1=O)N2 (stereo not drawn) the IC50 was > 30 µM (inactive). In the case of COc1ccc(-c2nn(-c3ccccc3)cc2/C=N/O)cc1OC, the IC50 is reported as 3.99 µM. With CN=C(C)/C(C(=O)OC)=C(/O)c1ccc(Cl)cc1Cl the IC50 was > 30 µM (inactive). COc1cccc(/C=N/Nc2cc(Cl)nc(C)n2)c1O was tested, and the IC50 was > 30 µM (inactive). CC1=C(C(=O)Nc2ccccc2F)C(c2ccsc2)C2=C(CC(C)(C)CC2=O)N1 (stereo not drawn) was tested, and the IC50 was > 30 µM (inactive). In the case of Cc1[nH]nc2c1C(c1cccc(O)c1)C1=C(CC(C)(C)CC1=O)N2 (stereo not drawn), the IC50 is reported as 0.421 µM. For Cc1nn(-c2ccccn2)c2c1C(c1ccsc1)C1=C(CCCC1=O)N2 (stereo not drawn), the IC50 was > 30 µM (inactive). O=C1CCCC2=C1C(c1cccs1)Nc1ccccc1N2 (stereo not drawn) was tested, and the IC50 was > 30 µM (inactive). Cc1ccc(/C=N/Nc2ncnc3nc[nH]c23)cc1 was tested, and the IC50 was 30.1 µM. With O=C(O)Cn1cc(/C=N/Nc2ccc([N+](=O)[O-])cn2)c2ccccc21 the IC50 was 8.24 µM. CC1(C)CC(=O)C2=C(C1)Nc1ccccc1NC2c1ccc(F)cc1 (stereo not drawn) was tested, and the IC50 was > 30 µM (inactive). For CC1=C(C(=O)OCC2CCCO2)C(c2ccc(O)cc2)NC(=O)N1 (stereo not drawn), the IC50 was > 30 µM (inactive). COc1cc(C2C(C(=O)c3cccs3)=C(O)C(=O)N2CCN2CCOCC2)ccc1OCCC(C)C (stereo not drawn) was tested, and the IC50 was > 30 µM (inactive). COc1cccc(C2C3=C(CCCC3=O)Nc3[nH]n(-c4ccccc4)c(=O)c32)c1 (stereo not drawn) was tested, and the IC50 was > 30 µM (inactive). For CCOc1cc(C2C(C(=O)N3CCCCC3)=C(C)NC3=C2C(=O)CC(C)(C)C3)ccc1O (stereo not drawn), the IC50 was > 30 µM (inactive). O=C(O)c1ccccc1N/N=C\c1ccnc2ccccc12 was tested, and the IC50 was > 30 µM (inactive). In the case of C=CCOC(=O)C1=C(C)Nc2ncnn2C1c1cccs1 (stereo not drawn), the IC50 is reported as > 30 µM (inactive). With Cc1ccccc1/C=N/Nc1ncnc2nc[nH]c12 the IC50 was 17.1 µM. O=[N+]([O-])c1ccc2[nH]c(O)c(N=NC3CS(=O)(=O)CC3O)c2c1 (stereo not drawn) was tested, and the IC50 was 23 µM. For Cc1ccc2c(c1)NC(c1cccs1)C1=C(CC(C)(C)CC1=O)N2 (stereo not drawn), the IC50 was > 30 µM (inactive). For CCOc1ccc(/C=C2/C(=N)N3OC(C)=CC3=NC2=O)cc1OC, the IC50 was > 30 µM (inactive). In the case of CSc1nsc(/C=C/Nc2ccc(Cl)cc2)c1C#N, the IC50 is reported as > 30 µM (inactive). With Cc1ccccc1CSc1nc2n(n1)C(c1cccs1)C1=C(CCCC1=O)N2 (stereo not drawn) the IC50 was > 30 µM (inactive). For NS(=O)(=O)c1ccc(N=Nc2c(O)[nH]c3ccc(Br)cc23)cc1, the IC50 was > 30 µM (inactive). CCCCCCn1c(O)c(C=NCCCn2ccnc2)c(=O)[nH]c1=O gave an IC50 of 14.3 µM. For Cc1c(C(=O)O)cccc1-n1c(C)cc(/C=N/Nc2ccc([N+](=O)[O-])cn2)c1C, the IC50 was 21.3 µM. Cc1[nH]nc2c1C(c1ccc(O)cc1)C1=C(CC(C)(C)CC1=O)N2 (stereo not drawn) gave an IC50 of 2.06 µM. CCc1ccc(/C=N/Nc2ncnc3nc[nH]c23)cc1 gave an IC50 of 26.6 µM. In the case of CCOC(=O)C1=C(C)Nc2ncnn2C1c1ccc(N(C)C)cc1 (stereo not drawn), the IC50 is reported as > 30 µM (inactive). With CC1=C(C(=O)OCC2CCCO2)C(c2ccsc2)C2=C(CC(C)(C)CC2=O)N1 (stereo not drawn) the IC50 was > 30 µM (inactive). With CC1(C)CC(=O)C2=C(C1)NC1=C(C(=O)c3ccccc31)C2c1ccc(O)cc1 (stereo not drawn) the IC50 was > 30 µM (inactive). Compound CCCC1=C(C(=O)OCC)C(c2ccco2)n2ncnc2N1 (stereo not drawn) has an IC50 of 17.4 µM. O=C(O)c1ccc(/C=N/Nc2ccc(C(F)(F)F)cn2)cc1 gave an IC50 of 20.4 µM. N=C(N)N=Nc1c(O)[nH]c2ccc(Br)cc12 gave an IC50 of 31.4 µM. For O/N=C/c1cn(-c2ccccc2)nc1-c1cccnc1, the IC50 was 6.45 µM. In the case of CCOC(=O)/C(C(=O)Nc1ccc(Cl)cc1Cl)=C1/NC(C)(C)Cc2ccccc21, the IC50 is reported as > 30 µM (inactive). For COc1ccc(C2C3=C(CCCC3=O)Nc3n[nH]c(C)c32)cc1OC (stereo not drawn), the IC50 was > 30 µM (inactive). Compound Cc1[nH]nc2c1C(c1cccs1)C1=C(CC(C)(C)CC1=O)N2 (stereo not drawn) has an IC50 of 1.36 µM. For O/N=C/c1ccc(OCc2ccccc2)c(Cl)c1, the IC50 was > 30 µM (inactive). In the case of COc1cc(CN=Cc2c(O)n(C(C)(C)C)c(=O)[nH]c2=O)cc(OC)c1, the IC50 is reported as > 30 µM (inactive). In the case of CC1(C)CC(=O)C2=C(C1)Nc1cc3c(cc1C2c1ccc(F)cc1)OCO3 (stereo not drawn), the IC50 is reported as > 30 µM (inactive). Fc1cccc(/C=N/Nc2ncnc3nc[nH]c23)c1 gave an IC50 of 11.9 µM. With Cc1c(C=Nc2ccc(S(=O)(=O)N(C)C)cc2)c(O)[nH]c(=O)c1C#N the IC50 was > 30 µM (inactive).
